This is an account of results in patent US7141598B2, “Imidazole derivatives, production method thereof and use thereof” (Takeda Pharmaceutical Company, Ltd., priority 2000, dated 2006).

Experiment [1] deals with T1, steroid C17,20-lyase (Rattus norvegicus, UniProt P11715).
T1 construct: The orchis was homogenized and centrifuged to prepare a microsome; from tissue; host or cells: testis (orchis) microsomes of 13-week-old male SD rat
T1 sequence (P11715 1-507): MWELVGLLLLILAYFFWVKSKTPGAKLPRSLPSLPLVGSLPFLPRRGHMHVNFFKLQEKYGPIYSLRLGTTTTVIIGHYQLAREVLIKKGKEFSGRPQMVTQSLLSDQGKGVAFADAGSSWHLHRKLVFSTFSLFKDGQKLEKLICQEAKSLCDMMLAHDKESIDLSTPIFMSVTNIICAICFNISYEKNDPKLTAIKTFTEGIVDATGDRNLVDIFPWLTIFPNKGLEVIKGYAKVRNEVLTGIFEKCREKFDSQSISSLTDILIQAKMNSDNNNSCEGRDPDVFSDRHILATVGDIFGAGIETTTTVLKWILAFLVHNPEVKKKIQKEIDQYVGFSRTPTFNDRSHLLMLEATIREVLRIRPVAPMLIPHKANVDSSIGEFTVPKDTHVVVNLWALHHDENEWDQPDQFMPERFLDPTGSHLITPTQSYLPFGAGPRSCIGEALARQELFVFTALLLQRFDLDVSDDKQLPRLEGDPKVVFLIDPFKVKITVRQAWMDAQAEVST
The experiment can be described thus: Assay of steroid C17,20-lyase-inhibitory activity in rat (testis microsome). Format: biochemical. The note with it: male SD rat orchis microsome, 10 nM [1.2-3H]-17α-hydroxyprogesterone, 37° C., 7 min; read-out: IC50 (steroid C17,20-lyase inhibition). How it is done: Assay of steroid C17,20-Lyase-Inhibitory Activity in Rat
The assay was performed according to The Prostate, Vol. 26, 140–150 (1995).
The orchis was removed from 13-week-old male SD rat. The orchis was homogenized and centrifuged to prepare a microsome. The [1.2-^3H]-17α-hydroxyprogesterone having a final concentration of 10 nM, NADPH solution and the test compound were dissolved in a 100 mM phosphate buffer solution (10 μl, pH 7.4). Microsome protein (7 μg/10 μl) was added and the mixture was incubated at 37° C. for 7 min. Ethyl acetate (40 μl) was added and the mixture was centrifuged, and the substrate and the product (androstenedione and testosterone) in the supernatant were separated by a silica gel thin layer chromatography (TLC). The spot was detected and quantitatively assayed by a BAS 2000 bioimage analyzer.

Experiment [2] deals with T2, human CYP3A4 (Homo sapiens, UniProt P08684).
T2 construct: purchased GENTEST
The experiment can be described thus: Assay of human CYP3A4-inhibitory activity. The note with it: testosterone 100 μM, human CYP3A4 10 pmol/ml, 37° C., 30 min; read-out: IC50 (CYP3A4 inhibition, 6β-hydroxytestosterone production). Type of experiment: biochemical. How it is done: Assay of Human CYP3A4-Inhibitory Activity
Performed as in the following according to Journal of Biological Chemistry, vol. 256, 11937 (1983).
A phosphate buffer solution (50 mM, pH 7.4) containing testosterone (final concentration 100 μM, hereinafter the same), human CYP3A4 (10 pmol/ml, manufactured by GENTEST), NADPH producing system (0.5 mM NADP, 5 mM glucose-6-phosphate, 5 mM magnesium chloride, 1.5 units/ml glucose-6-phosphate dehydrogenase) and the test compound was incubated at 37° C. for 30 min. Acetonitrile was added to the reaction mixture and the mixture was stirred and centrifuged. The 6β-hydroxytestosterone in the obtained supernatant was analyzed by high performance liquid chromatography.

For experiment [3], the system named is testosterone biosynthesis. Briefly: Assay of inhibitory effect on testosterone biosynthesis in rats. Format: in vivo. The settings on record: 25 mg/kg oral, male SD rat, serum testosterone 2 h after administration, relative to control group. How it is done: Assay of Inhibitory Effect on Testosterone Biosynthesis in Rats
The test compound (25 mg/kg) was orally administered to 9-week-old male SD (Sprague Dawley) rat. Blood was taken at 2 h after administration of the compound and the concentration of testosterone in the obtained serum was assayed by radioimmunoassay. The proportion (T/C, %) of testosterone concentration of the test drug administration group relative to the testosterone concentration of the control group was calculated to determine testosterone synthesis-inhibitory activity.

T2 sequence (P08684 whole entry): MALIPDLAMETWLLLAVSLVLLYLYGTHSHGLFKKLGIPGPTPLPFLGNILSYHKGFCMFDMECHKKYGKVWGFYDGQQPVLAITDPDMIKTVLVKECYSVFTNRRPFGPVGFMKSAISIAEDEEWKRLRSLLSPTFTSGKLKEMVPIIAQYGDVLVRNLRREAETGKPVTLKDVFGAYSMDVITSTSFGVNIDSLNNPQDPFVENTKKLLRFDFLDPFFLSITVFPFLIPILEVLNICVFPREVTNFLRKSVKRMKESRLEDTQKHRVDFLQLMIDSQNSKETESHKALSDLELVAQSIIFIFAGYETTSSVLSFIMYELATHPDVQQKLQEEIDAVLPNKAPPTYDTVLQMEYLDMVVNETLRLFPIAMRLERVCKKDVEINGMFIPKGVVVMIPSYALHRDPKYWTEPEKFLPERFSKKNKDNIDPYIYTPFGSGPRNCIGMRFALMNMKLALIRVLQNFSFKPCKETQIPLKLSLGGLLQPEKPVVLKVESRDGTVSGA

On to `CNC(=O)c1ccc2cc(C3(O)CCn4cncc43)ccc2c1` (single isomer, unassigned; (+)) [Example 11, (+)-6-(7-hydroxy-6,7-dihydro-5H-pyrrolo[1,2-c]imidazol-7-yl)-N-methyl-2-naphthamide], for which the IC50 in experiment [1] was 48 nM. `OC1(c2cccc(-c3ccc(F)cc3)c2)CCn2cncc21` (stereo not shown) [Example 3, 7-(4′-fluoro[1,1′-biphenyl]-3-yl)-6,7-dihydro-5H-pyrrolo[1,2-c]imidazol-7-ol]: the results for the IC50 in experiment [2] and in experiment [1] were 9600 nM and 10 nM, respectively. For the same compound, the “inhibitory effect on testosterone biosynthesis (T/C, %)” value in experiment [3] amounted to 4.4%.

As to `OC1(c2ccc(-c3ccc(F)cc3)cc2)CCn2cncc21` (stereo not shown) [Example 4, 7-(4′-fluoro[1,1′-biphenyl]-4-yl)-6,7-dihydro-5H-pyrrolo[1,2-c]imidazol-7-ol], the values for the IC50 in experiment [2] and in experiment [1] were more than 10000 nM and 25 nM, respectively. As to `CNC(=O)c1ccc2cc(C3(O)CCn4cncc43)ccc2c1` (stereo not shown) [Example 5, 6-(7-hydroxy-6,7-dihydro-5H-pyrrolo[1,2-c]imidazol-7-yl)-N-methyl-2-naphthamide], in experiment [1], the IC50 turned out to be 54 nM.

Usually IC50 stands for the concentration needed to halve the response being measured.
